These results are taken from patent publication US4824936A, “(19-Alanine) calcitonin” (Rorer Pharmaceutical Corporation, priority 1987, dated 1989).

Bridge positions count the residues as written; N and C are the ends. Peptide text beside a SMILES is read from it.

In assay [1] the test system is serum calcium concentration.
Procedure: Biological Assay of Calcitonin Analogs in Vivo
Rats were divided into four groups of seven animals, and each group was assigned at random to a dose of standard or test solution. Low and high doses were chosen from the linear portion of the dose-response curve. For the salmon calcitonin standard, the values were 0.7 and 2.1 mcg. peptide/100 g. body weight (BW). This dose approximates 3 and 9 MU/100 g. […] Peptides were given by subcutaneous injection (0.2 ml/100 g. BW) and blood was withdrawn 1 hour later for serum calcium determination. Sera are processed and analyzed within two hours of collection.
For assay [2] the following is noted: literature values; cited from earlier work.

Consider `CC(C)C[C@H](NC(=O)[C@H](CCCCN)NC(=O)CNC(=O)[C@H](CC(C)C)NC(=O)[C@@H](NC(=O)[C@@H]1CSSC[C@H](N)C(=O)N[C@@H](CO)C(=O)N[C@@H](CC(N)=O)C(=O)N[C@@H](CC(C)C)C(=O)N[C@@H](CO)C(=O)N[C@@H]([C@@H](C)O)C(=O)N1)C(C)C)C(=O)N[C@@H](CO)C(=O)N[C@@H](CCC(N)=O)C(=O)N[C@@H](CCC(=O)O)C(=O)N[C@@H](CC(C)C)C(=O)N[C@@H](Cc1c[nH]cn1)C(=O)N[C@@H](CCCCN)C(=O)N[C@@H](C)C(=O)N[C@@H](CCC(N)=O)C(=O)N[C@H](C(=O)N[C@@H](Cc1ccc(O)cc1)C(=O)N1CCC[C@H]1C(=O)N[C@@H](CCCNC(=N)N)C(=O)N[C@H](C(=O)N[C@@H](CC(N)=O)C(=O)N[C@H](C(=O)NCC(=O)N[C@@H](CO)C(=O)NCC(=O)N[C@H](C(=O)N1CCC[C@H]1C(N)=O)[C@@H](C)O)[C@@H](C)O)[C@@H](C)O)[C@@H](C)O` [[Ala^19]SCT, [19-Alanine] salmon calcitonin] (H-CSNLSTCVLGKLSQELHKAQTYPRTNTGSGTP-NH2; disulfide 1-7), for which, in assay [1] (rat, in vivo, sc), the biological potency was found to be 5400 IU/mg.

For the compound `CC(C)C[C@H](NC(=O)[C@H](CCCCN)NC(=O)CNC(=O)[C@H](CC(C)C)NC(=O)[C@@H](NC(=O)[C@@H]1CSSC[C@H](N)C(=O)N[C@@H](CO)C(=O)N[C@@H](CC(N)=O)C(=O)N[C@@H](CC(C)C)C(=O)N[C@@H](CO)C(=O)N[C@@H]([C@@H](C)O)C(=O)N1)C(C)C)C(=O)N[C@@H](CO)C(=O)N[C@@H](CCC(N)=O)C(=O)N[C@@H](CCC(=O)O)C(=O)N[C@@H](CC(C)C)C(=O)N[C@@H](Cc1c[nH]cn1)C(=O)N[C@@H](CCCCN)C(=O)N[C@@H](CC(C)C)C(=O)N[C@@H](CCC(N)=O)C(=O)N[C@H](C(=O)N[C@@H](Cc1ccc(O)cc1)C(=O)N1CCC[C@H]1C(=O)N[C@@H](CCCNC(=N)N)C(=O)N[C@H](C(=O)N[C@@H](CC(N)=O)C(=O)N[C@H](C(=O)NCC(=O)N[C@@H](CO)C(=O)NCC(=O)N[C@H](C(=O)N1CCC[C@H]1C(N)=O)[C@@H](C)O)[C@@H](C)O)[C@@H](C)O)[C@@H](C)O` [standard salmon calcitonin, Salmon calcitonin], the “biological potency of the standard, independently determined” value in assay [1] (standard used in the assay, independently determined) was “greater than 4,000 IU/mg”. Take “(1,7-alpha-L-amino-suberic acid) eel calcitonin”: the hypocalcemic potency entry in assay [2] is given as “about 3400 IU/mg”.

Regarding “eel calcitonin [synthetic eel calcitonin]”, the hypocalcemic potency entry in assay [2] was “around 4300 IU/mg”.
